Literature values in patent US20100273258A1, “Interactive Microenvironment System” (The Ohio State University, priority 2009, published 2010).

How the values were obtained:
[1] = test system: human breast cancer cell lines
[2] = test system: DNA methylation of cancer suppressor genes; details: versus 5-Aza-2′-deoxycystidine and Trichostatin A (TSA)

Structure (SMILES)	anti-proliferative effects ([1]; MCF-7, MCF-7Adr and MDA-MB-231 human breast cancer cell lines)	anti-human breast cancer proliferative potency relative to racemic (±)-GP ([1]; previously published data)	demethylating agent compared with clinical drugs [2]
Cc1cc2c(C(C)C)c(O)c(O)c(C=O)c2c(O)c1-c1c(C)cc2c(C(C)C)c(O)c(O)c(C=O)c2c1O (racemic) [(±)-GP]	anti-proliferative effects		
Cc1cc2c(C(C)C)c(O)c(O)c(C=O)c2c(O)c1-c1c(C)cc2c(C(C)C)c(O)c(O)c(C=O)c2c1O [(−)-GP]		10 fold	much better demethylating agent
